Experimental data reported in article PMC11091889, “Silver Organometallics that are Highly Potent Thioredoxin and Glutathione Reductase Inhibitors: Exploring the Correlations of Solution Chemistry with the Strong Antibacterial Effects” (ACS Infectious Diseases, 2024).

Tests used:
[1] = tested on: P. aeruginosa (PA 14) biofilm; assay: Inhibition of biofilm formation, crystal violet staining; format: cell-based, Pseudomonas aeruginosa; details: for smallest active concentration for biofilm inhibition: concentration at which the % inhibition was found; for biofilm inhibition: ± SD, n = 4, at the respective smallest active concentration, 24 h
Description: Silver and its complexes can strongly affect the growth of biofilms.[56]−[58] In view of the promising activity against Gram-negative bacteria as mentioned above, we evaluated the inhibiting effect of the silver complexes on biofilm production by P. aeruginosa by a method based on crystal violet staining (Table 4 and Figure S14). Complexes 3a–c and 4a–c were selected for the test based on the results of solubility, stability, and antibacterial screening. […] The lower activity of 3c might be explained by its lower kinetic solubility in the aqueous environment (see Figure 4).
The antibiofilm activity was determined according to a literature method.[73] A 1 mL aliquot of P. aeruginosa (PA 14) was taken from −20 °C stock, incubated in 25 mL LB medium (Luria–Bertani Broth) in a 250 mL flask, and kept at 37 °C at 100 rpm overnight. The optical density at 600 nm (OD600) of the culture solution was adjusted to match the turbidity of a 0.1 McFarland standard in M63 medium.[74] Selected compounds were mixed with 150 μL of bacterial solution in U-bottom 96 well plates to the final respective concentrations (25–0.2 μg/mL). The plates were further incubated at 37 °C for 24 h while shaking at 150 rpm. Afterward, the plates were rinsed once with 150 μL of PBS buffer, and the biofilms were stained using 150 μL of crystal violet (0.1%) staining at room temperature for 15 min and then rinsed once with PBS buffer. After rinsing, 150 μL of ethanol (95%) was added, and the absorbance was quantified using a plate reader (Synergy 2, BioTek, Santa Clara, USA) at 550 nm. The resulting antibiofilm activity is presented as percentage of inhibition at the respective smallest active concentration in μM with standard deviation (SD) of two repeats with duplicates. Myxovalargin A and DMSO (2.5%) were used as the positive and negative controls, respectively.

[2] = biological target: T1, glutathione reductase (GR) from baker's yeast (Saccharomyces cerevisiae, UniProt P41921); assay: GR inhibition assay (DTNB reduction); format: biochemical; details: ± standard deviation, n = 3, 75 min preincubation
T1 construct: purchased Sigma-Aldrich
T1 sequence (P41921 17-483 limits assumed): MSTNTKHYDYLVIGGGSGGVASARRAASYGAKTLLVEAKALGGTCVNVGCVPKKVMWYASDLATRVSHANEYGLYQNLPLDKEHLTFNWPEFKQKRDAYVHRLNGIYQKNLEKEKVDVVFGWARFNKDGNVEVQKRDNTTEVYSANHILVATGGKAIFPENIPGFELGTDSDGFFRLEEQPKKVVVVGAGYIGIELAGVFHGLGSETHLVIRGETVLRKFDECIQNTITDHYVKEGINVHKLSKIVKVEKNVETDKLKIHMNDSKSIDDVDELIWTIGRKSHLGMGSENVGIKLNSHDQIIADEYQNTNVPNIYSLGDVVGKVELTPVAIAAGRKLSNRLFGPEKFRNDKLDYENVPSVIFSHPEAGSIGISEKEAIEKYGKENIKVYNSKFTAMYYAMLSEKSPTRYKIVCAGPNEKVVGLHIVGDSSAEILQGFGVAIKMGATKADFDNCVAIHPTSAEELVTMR
Description: The inhibition of purified E. coli thioredoxin reductase (TrxR) and glutathione reductase (GR) from both E. coli and baker’s yeast was determined according to a previously applied procedure.[59],[60]
The TrxR (E. coli) and GR (baker’s yeast and E. coli) inhibition assays were performed according to previously published procedures.[62],[75] The assays are partly based on the procedure developed by Lu et al.[60] and make use of the reduction of 5,5′-dithiobis(2-nitrobenzoic acid) (DTNB). Solutions of E. coli TrxR (35.4 U/mL) and E. coli thioredoxin (Trx) (156 μg/mL) (both purchased from Sigma-Aldrich) or baker’s yeast GR (0,08 U/mL, Sigma-Aldrich) or E. coli GR (4.2 U/ml, Antibodies online) and GSSG (0.28 mM, Sigma-Aldrich) in distilled water were prepared, as were fresh 2 mM stock solutions of the test compounds in DMSO. Then, solutions with several concentrations of the test compounds in DMSO were prepared, and 35 μL of each solution was diluted with 965 μL of TE buffer (Tris–HCl 50 mM, EDTA 1 mM, pH 7.5). These solutions (20 μL) or TE buffer without the test compounds (20 μL, as control) were mixed with the TrxR or GR solutions (10 μL), the Trx or GSSG solutions (10 μL), and a solution of NADPH (200 μM) in TE buffer (100 μL) in a well on a 96-well plate. As a blank solution, 200 μM NADPH in TE buffer (100 μL) mixed with a DMSO/buffer mixture (40 μL) was used (final concentrations of DMSO: 0.5% v/v). The plate was incubated for 75 min at 25 °C with moderate shaking. After incubation, 100 μL of a reaction mixture (TE buffer containing 200 μM NADPH and 5 mM DTNB) was added to each well to initiate the reaction. After thorough mixing, the formation of 5-TNB was monitored by a microplate reader at 405 nm in 35 s intervals (10 measurements). The values were corrected by subtraction of the blank solution absorption values. The increase in the concentration of 5-TNB followed a linear trend (r^2 ≥ 0.990), and the enzymatic activities were calculated as the gradients (increase in absorbance per second) thereof. […] The inhibition is presented as the mean IC50 values and standard deviations obtained in three independent experiments.

[3] = tested on: P. aeruginosa PA7 (DSM 24068); assay: microbe, parasite or virus in culture; format: cell-based, Pseudomonas aeruginosa; details: n = 3, MHB; for MIC P. aeruginosa / EC50: mean ± standard error; for MIC P. aeruginosa / MIC P. aeruginosa (value in brackets): 22 h; for EC50: read-out: EC50 P. aeruginosa
In short: (§1)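 Broth microdilution used 2–8 × 10^5 CFU/mL inocula, with compounds serially diluted 64 to 1 μg/mL and incubated 22 h at 37 °C, read at 600 nm. A. baumannii, K. pneumoniae and P. aeruginosa were grown in MHB pH 7.4; E. faecium was grown in TSY pH 7.0–7.2. MIC and EC50 were obtained by curve fitting from three independent experiments.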

[4] = Conductometry: molar conductivity of silver complexes in DMSO; format: physicochemical; details: 1.0 mM in DMSO, calculated as monocarbene (NHC)AgX
In short: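 Molar conductivity of each silver complex was measured at 1.0 mM in freshly distilled DMSO (specific conductivity ≤3 × 10^–8 S cm^–1) using an Apera Instruments EC9500 conductivity meter at 25 ± 2 °C. AgNO3 served as the 1:1 electrolyte reference, and readings were taken after dissolution to distinguish neutral monocarbene from ionic biscarbene forms.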

[5] = tested on: E. faecium (DSM 20477, ATCC 19434); assay: Broth microdilution antibacterial assay; format: cell-based, Enterococcus faecium; details: n = 3, TSY; for MIC E. faecium / EC50: mean ± standard error; for MIC E. faecium / MIC E. faecium (value in brackets): 22 h; for EC50: read-out: EC50 E. faecium
In short: as §1

Structure (SMILES)	smallest active concentration for biofilm inhibition [1] [µM]	biofilm inhibition [1] [%]	IC50 [2] [nM]	MIC P. aeruginosa [3] [µM]	EC50 [3] [µM]	MIC P. aeruginosa (value in brackets) [3] [µg/mL]	Molar conductivity ΛM ([4]; 1 h after dissolution) [S cm^2 mol^–^1]	Molar conductivity ΛM ([4]; 24 h after dissolution) [S cm^2 mol^–^1]	MIC E. faecium [5] [µM]	EC50 [5] [µM]	MIC E. faecium (value in brackets) [5] [µg/mL]
CC(C)n1[c](=[Ag][Cl])n(Cc2ccccn2)c2ccccc21 [3a, Chlorido (1-Isopropyl-3-(pyridin-2-ylmethyl)-benzimidazol-2-ylidene) Silver(I)]	7.9	71 ± 4	44 ± 4	81.1 ± 0.0	39.1 ± 8.8	32	3.34	2.91	162 ± 0.0	139 ± 0.4	64
CC(C)n1[c](=[Ag][Br])n(Cc2ccccn2)c2ccccc21 [3b, Bromido (1-Isopropyl-3-(pyridin-2-ylmethyl)-benzimidazol-2-ylidene) Silver(I)]	7.1	74 ± 5	41 ± 6	60.7 ± 12.1	30 ± 6.9	26	5.25	4.71	146 ± 0.0	123 ± 0.4	64
CC(C)n1[c](=[Ag][I])n(Cc2ccccn2)c2ccccc21 [3c, Iodido (1-Isopropyl-3-(pyridin-2-ylmethyl)-benzimidazol-2-ylidene) Silver(I)]	13.0	55 ± 19	49 ± 4	11.0 ± 2.7	6 ± 1	5	8.15	7.62	65.8 ± 0.0	60.9 ± 0.1	32
COCCn1[c](=[Ag][I])n(Cc2ccccn2)c2ccccc21 [4c, Iodido (1-(2-Methoxyethyl)-3-(pyridin-2-ylmethyl)-benzimidazol-2-ylidene) Silver(I)]	6.2	66 ± 6		18.6 ± 7.0	4.9 ± 1.2	9	7.18	8.83	> 128	> 128	> 64
